Data taken from BigSolDB 2.1.

O=C(O)CCCCCCCCCCCC(=O)O
solubility (mole fraction)
Details | 283.15 K | 288.15 K | 293.15 K | 298.15 K | 303.15 K | 308.15 K | 313.15 K | 318.15 K | 323.15 K
in acetic acid | – | 0.00231 | 0.00309 | 0.00418 | 0.00656 | 0.00975 | 0.0138 | 0.0201 | 0.0253
in acetone | 0.00192 | 0.00207 | 0.00302 | 0.00409 | 0.00633 | 0.00892 | 0.0128 | 0.0166 | 0.0234
in ethanol | 0.00277 | 0.00286 | 0.00388 | 0.00441 | 0.00674 | 0.0115 | 0.0149 | 0.0207 | 0.0263
in ethyl acetate | 0.00072 | 0.00083 | 0.00111 | 0.00149 | 0.00254 | 0.00361 | 0.00524 | 0.00722 | 0.011
in methanol | 0.00291 | 0.00315 | 0.00388 | 0.00449 | 0.00541 | 0.00845 | 0.0106 | 0.0126 | 0.015
